In BindingDB's records for doi:10.1016/s0028-3908(97)00039-7 (Roche Bioscience, 1997) one finds Ki data, which are given here for 8 compounds.

The assay addresses 5-hydroxytryptamine receptor 4 (Rattus norvegicus, UniProt Q62758).

The structures appear in SMILES notation. Values joined by “and” are separate entries in the source; they are usually repeats but may differ in a detail not shown here. Equal values may be shown once.

Usually Ki stands for a dissociation constant, usually derived from enzyme kinetics or from competition with a known ligand. High values mean lower affinity, low ones higher affinity.

Chain of 5-hydroxytryptamine receptor 4 (Q62758 whole entry): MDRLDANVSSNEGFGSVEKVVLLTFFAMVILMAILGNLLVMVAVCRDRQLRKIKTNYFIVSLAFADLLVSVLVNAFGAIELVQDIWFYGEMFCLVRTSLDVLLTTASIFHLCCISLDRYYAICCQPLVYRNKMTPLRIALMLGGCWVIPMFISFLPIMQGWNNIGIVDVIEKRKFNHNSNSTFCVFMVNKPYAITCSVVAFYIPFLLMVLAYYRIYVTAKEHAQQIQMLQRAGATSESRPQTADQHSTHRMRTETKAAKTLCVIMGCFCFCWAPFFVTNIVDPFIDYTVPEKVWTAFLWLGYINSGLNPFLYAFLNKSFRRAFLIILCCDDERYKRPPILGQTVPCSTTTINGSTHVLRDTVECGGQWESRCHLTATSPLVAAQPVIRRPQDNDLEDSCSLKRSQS

As for `CN1C2CCC1CC(OC(=O)c1c[nH]c3ccccc13)C2` (stereo not drawn), the Ki is 100 nM and 251 nM and 501 nM.

For `CC(C)n1c(=O)n(C(=O)NC2CC3CCC(C2)N3C)c2ccccc21` (stereo not drawn) [BIMU 8], the Ki is 15.8 nM and 50.1 nM and 79.4 nM.

Regarding `CCCCN1CCC(COC(=O)c2cc(Cl)c(N)c3c2OCCO3)CC1` [CAS_121881], the Ki was 1.25 nM and 0.39 nM and 0.31 nM.

`COc1ccc2[nH]c(=O)n(C(=O)OC3CC4CCC(C3)N4C)c2c1` (stereo not drawn) [DAU 6285]: the Ki is 79.4 nM and 63.1 nM and 158 nM.

On to `Cn1cc(C(=O)OCC2CCN(CCNS(C)(=O)=O)CC2)c2ccccc21` [GR 113808], for which the Ki is 3.16 nM and 1.99 nM and 3.98 nM.

On to `COc1cc(N)c(Cl)cc1C(=O)OCC1CCN(CCc2ccc3c(c2)OCCO3)CC1` [RS 57639], for which the Ki is 2.51 nM and 1.25 nM.

For `CCN(CC)CCOC(=O)c1cc(Cl)c(N)cc1OC` [SDZ-205557], the inhibition constant (Ki) is 19.9 nM and 25.1 nM.

Regarding `NCCc1c[nH]c2ccc(C(N)=O)cc12` [[3H]-5-carboxamidotryptamine], the Ki was 3160 nM and 5010 nM.
